# US20260130951A1, “GLYCYRRHIZIN-GLYCOL CHITOSAN CONJUGATE-COATED IRON OXIDE NANOPARTICLES AND USE THEREOF” (Industry-University Cooperation Foundation Hanyang …, priority 2018, published 2026)
# Experiments:
# [1] = about 5 mg/kg intravenously injected; cited from earlier work
# [2] = Liver lobe distribution after hepatic portal vein injection of methylene blue solution; type: in vivo, balb/c mice; details: about 24 hours
# Method: After zoletil and rumpun were injected into the abdominal cavity of balb/c mice at a ratio of 9:1 to anesthetize them, a methylene blue solution was injected by hepatic portal vein […]. After waiting for about 24 hours for tissue fixation of the methylene blue solution, all liver lobes were isolated by sacrificing the mice. The isolated liver lobes were fixed with a 10% formalin solution, made into a paraffin block, and cut into a thickness of 5 μm to prepare a tissue section slide. Thereafter, paraffin was removed from the tissue section slide, the slide was rehydrated, and then the tissue section was stained with a Harris hematoxylin solution and an eosin solution, and observed under an optical microscope.
SMILES,time glycyrrhizin remains in the body [1],distribution of methylene blue solution among liver lobes (image J) [2]
CC1(C)[C@@H](O[C@H]2O[C@H](C(=O)O)[C@@H](O)[C@H](O)[C@H]2O[C@@H]2O[C@H](C(=O)O)[C@@H](O)[C@H](O)[C@H]2O)CC[C@]2(C)[C@H]3C(=O)C=C4[C@@H]5C[C@@](C)(C(=O)O)CC[C@]5(C)CC[C@@]4(C)[C@]3(C)CC[C@@H]12 [glycyrrhizin],≤ 15 min,
"CN(C)c1ccc2nc3ccc(=[N+](C)C)cc-3sc2c1 [methylene blue solution, methylene blue]",,present in the largest amount in Mediate 1
